Key:
[1] = Plasma protein binding (equilibrium dialysis), dog; type: in vitro ADME; details: pH 7.4, 37° C.
Method: Below is provided the procedure for measuring plasma protein binding (using an equilibrium dialysis method). 745 μL of plasma was transferred into a 2 ml micro centrifuge tube. To that 5 μL of Compound A1 (150 μM) was added. Samples were mixed in the table top vortexer for 2 minutes. 50 μL plasma (n=2) was transferred in a pre-labeled 1.5 mL micro centrifuge tube treated as 0 hour sample.
The remaining 650 μL plasma sample were incubated for 30 minutes at 37° C. in a water bath. After 30 minute incubation, 50 μL plasma (n=2) was removed in a pre-labelled 1.5 mL micro centrifuge tube treated as 0.5 hour sample. 200 μL of the plasma sample (n=2) was transferred into the sample chamber which was indicated by the red ring. The red insert was placed into the base plate and 350 μL of buffer was transferred into the buffer chamber. Plates were incubated at 37° C. at approximately 100 RPM on an orbital shaker or 20 RPM on an up-and-down shaker for 4 hours. 50 μL of post dialysis-sample from the buffer and the plasma chambers were transferred into a pre-labelled micro centrifuged tube. 50 μL of plasma was added to the buffer samples and an equal volume of buffer (KH2PO4 Buffer pH 7.4) to the collected plasma samples. 150 μL of methanol containing internal standard (Tolbutamide 250 ng/ml) was added to precipitate the protein and release compound. […]

IL-2 = test: Assay 6A: Cytokine assay in human PBMC, PHA induced IL-2; type: cell-based; details: PHA 20 μg/ml, 24 hours, 2-3 independent experiments, read-out: EC50, antigen-induced IL-2
Method: The objective of this study was to assess the inhibitory potential of Compound A1 on antigen-induced cytokine release in human PBMC
• Heparinized human whole blood was diluted 1:1 with PBS, over laid on leukocyte separation medium and centrifuged at 400 g for 40 minutes. • Buffy layer was removed and washed with PBS • 0.15*10^6 of PBMCs were plated in 100 μl per well in RPMI media and incubated for 2 h. • 50 μl of 3× of the compound dilution in media was added and incubated for 15 min. • TNFα—induced with 50 μl of LPS in RPMI such that final concentration was 1 μg/ml. Supernatant was collected at 6 hours. • IL-2-induced with 50 μl of PHA in RPMI such that final concentration was 20 μg/ml. Supernatant was collected at 24 hours. • IL-4-induced with 50 μl of PHA in RPMI such that final concentration was 20 μg/ml.
EC50 values were calculated from 2-3 independent experiments.

PI3Kδ = PI3Kδ (Homo sapiens, UniProt O00329); test: Assay 4: anti-FcεR1 induced CD63 expression in basophils from human whole blood; type: cell-based; set-up: endogenous in cells; host or cells: basophils in human whole blood; details: n=1, read-out: EC50 for FcεR1 (PI3K δ), CD63 positive basophils
PI3Kδ, sequence (O00329 whole entry): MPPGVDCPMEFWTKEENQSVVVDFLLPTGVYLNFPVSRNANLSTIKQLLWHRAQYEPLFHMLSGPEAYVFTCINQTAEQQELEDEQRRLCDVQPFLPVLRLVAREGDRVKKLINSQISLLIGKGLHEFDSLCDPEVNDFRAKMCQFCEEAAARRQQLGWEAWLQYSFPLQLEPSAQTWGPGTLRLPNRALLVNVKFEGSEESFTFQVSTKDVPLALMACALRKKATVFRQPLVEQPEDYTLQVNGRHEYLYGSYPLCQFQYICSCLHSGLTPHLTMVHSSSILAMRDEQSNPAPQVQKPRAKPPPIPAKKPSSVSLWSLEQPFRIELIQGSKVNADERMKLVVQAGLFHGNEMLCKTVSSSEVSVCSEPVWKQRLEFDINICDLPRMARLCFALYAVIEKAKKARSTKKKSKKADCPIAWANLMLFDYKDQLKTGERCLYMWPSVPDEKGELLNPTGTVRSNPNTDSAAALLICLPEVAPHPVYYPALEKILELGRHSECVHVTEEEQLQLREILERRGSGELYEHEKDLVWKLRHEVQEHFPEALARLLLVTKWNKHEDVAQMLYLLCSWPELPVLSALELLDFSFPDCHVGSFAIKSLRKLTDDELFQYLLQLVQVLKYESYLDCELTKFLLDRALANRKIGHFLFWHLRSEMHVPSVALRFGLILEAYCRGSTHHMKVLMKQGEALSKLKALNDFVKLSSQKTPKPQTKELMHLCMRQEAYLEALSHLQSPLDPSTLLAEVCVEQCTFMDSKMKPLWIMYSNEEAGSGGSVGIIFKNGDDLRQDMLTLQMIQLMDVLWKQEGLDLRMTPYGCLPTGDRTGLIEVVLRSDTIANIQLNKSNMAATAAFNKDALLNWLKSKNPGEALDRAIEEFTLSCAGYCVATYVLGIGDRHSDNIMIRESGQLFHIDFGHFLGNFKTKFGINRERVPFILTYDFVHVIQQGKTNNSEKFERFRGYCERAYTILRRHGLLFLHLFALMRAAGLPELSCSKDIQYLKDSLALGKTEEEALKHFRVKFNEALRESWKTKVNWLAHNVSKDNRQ
PI3Kδ, sequence (P27986 whole entry partner): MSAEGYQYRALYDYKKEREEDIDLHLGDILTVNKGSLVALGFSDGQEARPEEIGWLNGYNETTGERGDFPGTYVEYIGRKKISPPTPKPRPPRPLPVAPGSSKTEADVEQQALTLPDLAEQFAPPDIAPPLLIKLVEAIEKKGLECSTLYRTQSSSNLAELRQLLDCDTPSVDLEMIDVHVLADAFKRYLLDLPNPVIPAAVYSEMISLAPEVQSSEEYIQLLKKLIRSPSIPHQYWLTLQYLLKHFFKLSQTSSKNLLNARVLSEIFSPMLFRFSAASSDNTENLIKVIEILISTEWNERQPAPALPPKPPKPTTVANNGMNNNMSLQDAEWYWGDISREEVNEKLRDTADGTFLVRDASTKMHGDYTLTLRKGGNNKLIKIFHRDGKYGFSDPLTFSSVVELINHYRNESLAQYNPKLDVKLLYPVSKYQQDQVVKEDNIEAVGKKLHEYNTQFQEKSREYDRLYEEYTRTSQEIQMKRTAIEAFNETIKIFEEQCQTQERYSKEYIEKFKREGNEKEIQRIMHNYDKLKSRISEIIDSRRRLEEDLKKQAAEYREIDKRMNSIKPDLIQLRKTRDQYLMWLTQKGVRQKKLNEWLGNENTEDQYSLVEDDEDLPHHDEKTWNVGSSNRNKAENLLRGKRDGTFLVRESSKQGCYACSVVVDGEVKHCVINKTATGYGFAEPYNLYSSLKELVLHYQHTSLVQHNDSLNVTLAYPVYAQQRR
Method: (§1) PI3K δ and γ signaling in basophils manifested by an alteration of anti-FcεR1 or fMLP induced CD63 expression is a useful pharmacodynamic marker determined using the Flow2CAST® kit (Buhlmann Laboratories, Switzerland). The test procedure involves the following steps: • Mix the anti-coagulated blood sample by inverting the venipuncture tube several times; • Prepare fresh and pyrogen-free 3.5 ml polypropylene or polystyrene tubes suitable for Flow Cytometry measurements; • Add 49 μl of patient's whole blood to each tube; • Add 1 μl of 10% DMSO (background) or test compound (10% DMSO) to the assigned tubes and mix gently. Incubate at room temperature for 15 minutes; • Pipet 50 μl of the Stimulation buffer (background) or anti-FcεRI Ab or fMLP to each tube; • Add 100 μl of Stimulation Buffer to each tube; • Mix gently. Add 20 μl Staining Reagent (1:1 mix of FITC-CD63 and PE-CCR3) to each tube; • Mix gently, cover the tubes and incubate for 15 minutes at 37° C. in a water bath. […]
(§2) Percent CD63 positive cells within the gated basophil population were determined in different treatment groups and normalized to vehicle control.

PI3Kγ = PI3Kγ (Homo sapiens, UniProt P48736); test: Assay 4: fMLP induced CD63 expression in basophils from human whole blood; type: cell-based; set-up: endogenous in cells; host or cells: basophils in human whole blood; details: n=1, read-out: IC50 for fMLP (PI3K γ), CD63 positive basophils
PI3Kγ, sequence (P48736 whole entry): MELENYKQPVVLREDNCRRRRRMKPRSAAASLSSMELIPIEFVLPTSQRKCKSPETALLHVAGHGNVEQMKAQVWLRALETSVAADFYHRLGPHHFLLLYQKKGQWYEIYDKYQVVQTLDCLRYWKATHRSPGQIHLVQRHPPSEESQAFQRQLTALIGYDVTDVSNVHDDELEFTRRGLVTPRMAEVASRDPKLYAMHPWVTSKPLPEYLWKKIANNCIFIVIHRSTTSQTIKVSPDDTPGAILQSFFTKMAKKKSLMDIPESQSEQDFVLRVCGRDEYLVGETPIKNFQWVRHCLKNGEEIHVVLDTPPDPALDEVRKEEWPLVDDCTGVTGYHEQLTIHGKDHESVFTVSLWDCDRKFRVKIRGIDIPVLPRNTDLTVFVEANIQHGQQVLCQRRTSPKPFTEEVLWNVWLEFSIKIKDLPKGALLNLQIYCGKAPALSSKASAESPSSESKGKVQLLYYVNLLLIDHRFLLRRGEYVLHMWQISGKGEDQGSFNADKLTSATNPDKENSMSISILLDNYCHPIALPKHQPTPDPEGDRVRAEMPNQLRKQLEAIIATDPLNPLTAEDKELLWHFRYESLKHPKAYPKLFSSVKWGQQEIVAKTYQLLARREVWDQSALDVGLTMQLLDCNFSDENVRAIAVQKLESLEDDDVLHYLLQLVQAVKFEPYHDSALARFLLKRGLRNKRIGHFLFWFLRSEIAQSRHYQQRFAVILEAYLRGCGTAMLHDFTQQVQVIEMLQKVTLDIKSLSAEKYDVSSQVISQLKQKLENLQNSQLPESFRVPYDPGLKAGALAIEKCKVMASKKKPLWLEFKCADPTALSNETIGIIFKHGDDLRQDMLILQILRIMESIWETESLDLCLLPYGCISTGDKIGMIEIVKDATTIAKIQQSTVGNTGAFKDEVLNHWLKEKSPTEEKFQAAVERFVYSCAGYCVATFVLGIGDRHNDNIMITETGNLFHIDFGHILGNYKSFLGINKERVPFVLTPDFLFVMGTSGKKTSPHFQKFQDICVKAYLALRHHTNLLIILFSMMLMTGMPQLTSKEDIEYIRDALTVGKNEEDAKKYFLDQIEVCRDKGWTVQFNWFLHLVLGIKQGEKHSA
Method: as §1, §2

[2] = system: human whole blood B-cell proliferation (CD19); test: Assay 6B: Inhibition of LPS induced CD19 in human whole blood; type: cell-based; details: diluted human whole blood, 72 hours, read-out: EC50, inhibition of LPS-induced human whole blood B-cell proliferation (CD19 expression)
Method: The effect of Compound A1 on modulating B-cell receptor (BCR)-activated proliferation of human or mouse B-lymphocytes was determined. CD19 is a protein present on B cells from the earliest recognizable B-lineage cells during development to B-cell blasts but is however lost on maturation to plasma cells. LPS is an endotoxin and a major component of environmental microbes with a potent mitogenic activity on B-cells via the […].
Diluted human whole blood was treated with DMSO or desired concentrations of Compound A1. Samples were induced with LPS 15 minutes after addition of compound and incubated for 72 hours at 37° C. and 5% CO2. Cells positive for CD45 and CD19 were determined by flow cytometry and data are expressed as percentage CD19 positive cells in the total population.

PI3K beta = molecular target: T1, PI3K beta (Mus musculus, UniProt Q8BTI9); test: Assay 4A2: LPA induced AktS473 phosphorylation in 3T3 fibroblasts; type: cell-based; details: LPA 5 μM, read-out: Cellular IC50 PI3K beta (LPA induced pAKT in 3T3 fibroblasts)
T1 construct: endogenous in cells; host or cells: 3T3 fibroblasts
T1 sequence (Q8BTI9 whole entry): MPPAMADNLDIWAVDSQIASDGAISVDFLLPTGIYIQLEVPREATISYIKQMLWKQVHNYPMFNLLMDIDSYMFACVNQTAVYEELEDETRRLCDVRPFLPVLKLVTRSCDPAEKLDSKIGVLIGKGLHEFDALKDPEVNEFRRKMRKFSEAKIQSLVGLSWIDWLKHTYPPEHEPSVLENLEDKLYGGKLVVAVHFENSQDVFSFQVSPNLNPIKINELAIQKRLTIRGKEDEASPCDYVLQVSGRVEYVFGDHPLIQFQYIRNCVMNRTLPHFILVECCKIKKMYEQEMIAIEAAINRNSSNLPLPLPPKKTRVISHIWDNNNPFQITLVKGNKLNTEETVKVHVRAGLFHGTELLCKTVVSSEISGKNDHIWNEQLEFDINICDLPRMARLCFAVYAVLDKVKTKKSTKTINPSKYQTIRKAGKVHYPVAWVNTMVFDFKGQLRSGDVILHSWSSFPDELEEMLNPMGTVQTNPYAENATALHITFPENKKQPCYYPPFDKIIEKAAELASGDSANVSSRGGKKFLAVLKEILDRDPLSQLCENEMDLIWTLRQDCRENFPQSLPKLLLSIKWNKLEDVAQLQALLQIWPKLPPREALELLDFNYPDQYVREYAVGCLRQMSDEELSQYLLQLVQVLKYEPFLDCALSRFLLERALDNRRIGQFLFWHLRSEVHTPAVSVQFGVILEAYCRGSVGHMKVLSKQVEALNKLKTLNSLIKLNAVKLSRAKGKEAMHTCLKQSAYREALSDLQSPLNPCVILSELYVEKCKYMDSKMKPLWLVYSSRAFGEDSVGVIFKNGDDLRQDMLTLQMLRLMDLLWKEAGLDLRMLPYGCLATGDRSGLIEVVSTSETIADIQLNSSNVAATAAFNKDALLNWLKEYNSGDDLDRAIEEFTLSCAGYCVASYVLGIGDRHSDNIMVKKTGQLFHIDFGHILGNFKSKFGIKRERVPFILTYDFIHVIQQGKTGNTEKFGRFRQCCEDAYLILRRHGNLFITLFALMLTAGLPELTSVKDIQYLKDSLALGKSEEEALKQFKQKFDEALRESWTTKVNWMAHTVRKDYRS
T1 sequence (P26450 whole entry partner): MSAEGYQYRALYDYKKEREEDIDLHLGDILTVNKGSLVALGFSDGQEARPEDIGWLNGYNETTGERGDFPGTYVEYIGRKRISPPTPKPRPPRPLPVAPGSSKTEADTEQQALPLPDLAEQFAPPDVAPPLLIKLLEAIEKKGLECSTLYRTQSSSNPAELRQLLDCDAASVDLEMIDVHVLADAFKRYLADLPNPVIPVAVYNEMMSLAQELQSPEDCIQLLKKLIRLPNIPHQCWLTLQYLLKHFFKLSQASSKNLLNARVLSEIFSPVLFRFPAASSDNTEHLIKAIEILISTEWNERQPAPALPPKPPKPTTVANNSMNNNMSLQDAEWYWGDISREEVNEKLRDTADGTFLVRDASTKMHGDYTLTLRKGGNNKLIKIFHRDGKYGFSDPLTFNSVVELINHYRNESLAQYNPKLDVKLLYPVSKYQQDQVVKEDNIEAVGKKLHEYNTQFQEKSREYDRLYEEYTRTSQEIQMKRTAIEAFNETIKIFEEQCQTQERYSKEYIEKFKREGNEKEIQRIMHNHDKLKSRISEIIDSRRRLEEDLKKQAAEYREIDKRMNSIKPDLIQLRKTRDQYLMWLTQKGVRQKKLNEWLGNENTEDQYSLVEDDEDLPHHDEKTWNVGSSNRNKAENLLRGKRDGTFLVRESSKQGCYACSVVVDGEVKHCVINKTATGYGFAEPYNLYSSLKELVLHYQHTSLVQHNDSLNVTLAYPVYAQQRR
Method: The objective of this study was to determine the effect of Compound A1 on PI3Kβ kinase mediated LPA induced AktS473 phosphorylation in 3T3 fibroblasts.
3T3 cells were treated with desired concentrations of the test compound for 15 minutes. 1 ml of 2× LPA was added such that the final concentration was 5 μM and incubated for 5 minutes.
Media was discarded and washed with 1 ml of ice-cold 1× PBS.
250 μl of cell lysis buffer was added and incubated on ice for 30 minutes.
Samples were centrifuged and supernatant was maintained at −80° C. until analysis.
Samples were analyzed by Western Blotting using pAKT (S473) as the primary and anti-rabbit IgG-HRP as a secondary antibody.
Intensity of the bands was determined using ImageJ 1.42q (NIH, USA) and normalized to Actin (loading control). Data was plotted using GraphPad Prism (Version 5.02).

COc1ccc(-c2nn([C@@H](C)c3oc4cccc(F)c4c(=O)c3-c3cccc(F)c3)c3ncnc(N)c23)cc1NS(C)(=O)=O [Compound A1, (S)—N-(5-(4-amino-1-(1-(5-fluoro-3-(3-fluorophenyl)-4-oxo-4H-chromen-2-yl)ethyl)-1H-pyrazolo[3,4-d]pyrimidin-3-yl)-2-methoxyphenyl)methanesulfonamide]
fraction unbound at 4 h, 1 μM [1]: 0.0415
EC50 (IL-2): 9.5 nM
EC50 (PI3Kδ): < 30 nM
IC50 (PI3Kγ): < 70 nM
EC50 [2]: 118 nM
IC50 (PI3K beta): 1320 nM
